From article PMC2703631, “Identification of non-muscle myosin heavy chain as a substrate for Cdk5 and tool for drug screening” (Journal of Biomedical Science, 2009) come the findings set out here.

The structures appear in SMILES notation.

For series [1], the system named is Cdk5/p25 transfected HEK293 cells. The series can be described thus: NMHC-B (pSerCdk substrate) phosphorylation by Western blot in Cdk5/p25 transfected HEK293 cells. The series is classed as cell-based, human. To be noted: for IC50: Homo sapiens, 4 hours treatment, Western blot, read-out: IC50, inhibition of pSerCdk substrate (NMHC-B) phosphorylation. The protocol:
(§1) The inhibition curves were analysed by non-linear regression using Graph Pad Prism.
(In western blotting, separated proteins are transferred to a membrane and probed.)

Series [2] has as its target recombinant human Cdk5/p25 (Homo sapiens, UniProt Q00535). The series is described as follows: Scintillation Proximity Assay (SPA), peptide substrate phosphorylation. The series is classed as biochemical. As to conditions: recombinant human Cdk5/p25 3.3 nM, 2 μM ATP, biotinylated peptide substrate; read-out: IC50, inhibition of peptide substrate phosphorylation in SPA assay. The protocol: as §1
This biochemical assay measures inhibition of the recombinant human Cdk5/p25 protein kinase by different compounds with a synthetic peptide as a substrate.
For orientation: Scintillation proximity formats need no separation of bound from free tracer.

A short description of series [3]: Solubility (remark in discussion). The series is classed as physicochemical. To be noted: stated as likely cause of precipitation at higher concentrations.
The test system of series [4] is human neuroblastoma SH-SY5Y cells. The series can be described thus: pSerCdk substrate (NMHC-B) phosphorylation by Western blot in SH-SY5Y cells. As to conditions: undifferentiated and RA-differentiated SH-SY5Y cells, 10 μM, 4 hours. The series is classed as cell-based. The protocol:
SH-SY5Y cells were grown in medium with equal amount of Minimum Essential Medium (MEM, InVitrogen, Sweden) and Nutrient Mixture Ham's F-12 (InVitrogen, Sweden), supplemented with 1% non-essential amino acids and with heat-inactivated FCS. Cells were plated at a density of 4.0 × 10^4 cells/cm^2 in 6-well culture dishes using cell medium with 10% FCS. For differentiation, the cells were treated 6 days with 10 μM all-trans-retinoic acid (RA, Sigma, Sweden) in the medium containing 1% FCS. In some experiments the cells were left undifferentiated and these cells were cultured in medium containing 10% FCS. […]
HEK293 cells were lysed in buffer containing 10 mM Tris-HCl pH 7.2, 150 mM NaCl, 2 mM EDTA, 50 mM NaF, 1 mM Na3O4V, 0.5% NP-40 and 1 complete protease inhibitor cocktail tablet (Roche Diagnostics Scandinavia AB, Sweden)/10 ml buffer. […] The protein content in the supernatants was measured using BCA Protein Assay kit (Pierce Biotechnology, Rockford, IL, USA). […] Average density of the bands was measured in Fluor-S™MultiImager (Bio-Rad Laboratories AB, Sweden) by using Quantity One software. The inhibition curves were analysed by non-linear regression using Graph Pad Prism.
We also investigated NMHC-B phosphorylation by Cdk5 in human neuroblastoma SH-SY5Y cells. […] Verification that the 200 kDa pSerCdk band detected in SH-SY5Y cells was in fact NMHC-B was done by immunoprecipitation.

Sequence of recombinant human Cdk5/p25 (Q00535 whole entry): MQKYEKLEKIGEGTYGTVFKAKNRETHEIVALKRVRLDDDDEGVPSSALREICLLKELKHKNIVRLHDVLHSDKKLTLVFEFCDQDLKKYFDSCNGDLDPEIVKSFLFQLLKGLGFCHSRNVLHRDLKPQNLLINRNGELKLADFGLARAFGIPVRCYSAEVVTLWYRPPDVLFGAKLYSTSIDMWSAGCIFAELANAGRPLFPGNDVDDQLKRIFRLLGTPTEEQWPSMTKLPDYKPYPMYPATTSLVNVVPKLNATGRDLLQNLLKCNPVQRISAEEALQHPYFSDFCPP
Sequence of recombinant human Cdk5/p25 (Q15078 99-307 partner limits assumed): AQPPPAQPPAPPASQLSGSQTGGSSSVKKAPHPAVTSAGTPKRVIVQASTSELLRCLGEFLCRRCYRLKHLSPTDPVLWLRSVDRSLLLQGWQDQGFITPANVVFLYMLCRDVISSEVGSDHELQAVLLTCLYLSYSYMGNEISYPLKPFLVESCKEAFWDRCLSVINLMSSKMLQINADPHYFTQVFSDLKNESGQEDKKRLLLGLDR

Regarding `Cc1c(C(=O)c2ccc(Cl)cc2)cc(C(C)(C)C)c(O)c1C(=O)O` [5-(4-chlorobenzoyl)-2-hydroxy-6-methyl-3-tert-butyl-benzoic acid], the “inhibition of pSerCdk substrate phosphorylation” value in series [1] (data not shown) is “did not show inhibition”.
As usually defined, the IC50 is the concentration that inhibits the measured activity by half. Take `NS(=O)(=O)c1cc(-c2nc3ccc(Cl)cc3s2)cs1` [AZ compound, 4-(6-chlorobenzothiazol-2-yl)thiophene-2-sulfonamide]: the IC50 amounted to 355 nM in series [2] and 4360 nM in series [1]. In series [3], the solubility entry is “poor solubility”.
Regarding `CC[C@H](CO)Nc1nc(NCc2ccccc2)c2ncn(C(C)C)c2n1` [Roscovitine], the “phosphorylation of 200 kDa pSerCdk substrate band” value in series [4] is given as “completely inhibited”.
Consider `CCn1c(=O)ccc2cnc(Nc3ccc(F)cc3)nc21` [WL compound, 7-ethyl-4-[(4-fluorophenyl)amino]-3,5,7-triaza bicyclo [4.4.0.] deca-1,3,5,9-tetraen-8-one], for which the half-maximal inhibitory concentration (IC50) was 45 nM in series [2] and 2550 nM in series [1].
